Key:
Conditions in all cases: Hela microsomes 100 μg, 14C-acyl-CoA, NADH (FIG. 3)
mSCD1 = molecular target: T1, mSCD1 (Mus musculus, UniProt P13516); assay: Δ9-desaturase activity in microsomes of Hela cells over-expressing mSCD1; format: biochemical
T1 sequence (P13516 1-355): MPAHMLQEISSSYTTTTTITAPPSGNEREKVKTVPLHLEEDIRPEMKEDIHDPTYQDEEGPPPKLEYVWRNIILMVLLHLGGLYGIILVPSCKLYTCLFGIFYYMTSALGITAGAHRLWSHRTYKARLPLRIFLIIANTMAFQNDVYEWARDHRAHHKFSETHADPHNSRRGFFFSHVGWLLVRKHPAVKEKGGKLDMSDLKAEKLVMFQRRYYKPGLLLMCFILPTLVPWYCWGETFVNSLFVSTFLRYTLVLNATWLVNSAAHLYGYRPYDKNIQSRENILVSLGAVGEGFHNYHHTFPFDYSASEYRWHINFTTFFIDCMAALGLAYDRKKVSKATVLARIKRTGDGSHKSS
Experimental: (§1) HeLa cells were cultured at 37° C. in a humidified 5% CO2 atmosphere in Dulbecco's modified Eagle's medium supplemented with 10% (v/v) fetal bovine serum and penicillin/streptomycin. The cells were resuspended in cytomix buffer (120 mM KCl, 0.15 mM CaCl2, 25 mM Hepes/KOH, pH 7.6, 2 mM EGTA, 5 mM MgCl2), and 400 μl of suspension was transferred to a 0.4-cm electroporation cuvette (Invitrogen). 35 μg of pcDNA3 DNA harboring either human or mouse SCD constructs were transfected into Hela cells which have very low Δ9-desaturase activity. DNA was added to the cell suspension in the cuvette and mixed well. The mixture was then exposed to a single electric pulse of 300 V with a capacitance of 1000 microfarads using an Invitrogen pulse system. The cells were allowed to recover in culture medium at 37° C. (5% CO2 atmosphere) for 48 h before harvesting and performing SCD activity assays.
(§2) Δ9-desaturase activity: Microsomes were purified from Hela cells by differential centrifugation and resuspended in a 0.1 M potassium phosphate buffer (pH 6.8). Δ9-desaturase activity was assayed at 25° C. for 7 minutes with either [^14C] stearoyl-CoA or [^14C] palmito-CoA, 2 mM NADH, and 100 μg microsomal protein (Miyazaki, M. et al. (2001) J Biol Chem 276, 39455-39461).

mSCD2 = molecular target: T2, mSCD2 (Mus musculus, UniProt P13011); assay: Δ9-desaturase activity in microsomes of Hela cells over-expressing mSCD2; format: biochemical
T2 sequence (P13011 1-358): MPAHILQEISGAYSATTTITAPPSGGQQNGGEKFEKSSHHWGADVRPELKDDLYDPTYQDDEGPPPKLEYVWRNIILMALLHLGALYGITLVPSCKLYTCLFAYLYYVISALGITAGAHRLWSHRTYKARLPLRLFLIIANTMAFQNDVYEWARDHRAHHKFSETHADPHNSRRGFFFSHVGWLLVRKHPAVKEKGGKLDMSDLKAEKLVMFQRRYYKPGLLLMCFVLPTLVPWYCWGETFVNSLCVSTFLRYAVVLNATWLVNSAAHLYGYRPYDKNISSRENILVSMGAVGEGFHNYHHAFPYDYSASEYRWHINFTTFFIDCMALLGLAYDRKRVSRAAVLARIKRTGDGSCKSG
Experimental: as §1, §2

mSCD4 = assay: Δ9-desaturase activity in microsomes of Hela cells over-expressing mSCD4; format: biochemical, mouse
Experimental: as §1, §2

hSCD1 = molecular target: T3, hSCD1 (Homo sapiens, UniProt O00767); assay: Δ9-desaturase activity in microsomes of Hela cells over-expressing hSCD1; format: biochemical; set-up: Cloning of the full-length human and mouse SCD cDNAs: The full coding region of human SCDs; expressed in transfected cells
T3 sequence (O00767 1-359): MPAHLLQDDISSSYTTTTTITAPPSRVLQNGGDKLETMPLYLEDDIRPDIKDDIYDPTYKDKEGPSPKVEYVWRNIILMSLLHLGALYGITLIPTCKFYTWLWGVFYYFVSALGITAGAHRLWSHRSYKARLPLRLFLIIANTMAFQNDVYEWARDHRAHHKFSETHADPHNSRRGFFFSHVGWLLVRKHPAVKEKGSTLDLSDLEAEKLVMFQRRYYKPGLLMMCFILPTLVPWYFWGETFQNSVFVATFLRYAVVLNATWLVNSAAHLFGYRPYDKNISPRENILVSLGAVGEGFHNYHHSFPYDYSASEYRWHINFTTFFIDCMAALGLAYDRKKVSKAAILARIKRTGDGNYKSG
Experimental: as §1, §2

hSCD5 = molecular target: T4, hSCD5 (Homo sapiens, UniProt Q86SK9); assay: Δ9-desaturase activity in microsomes of Hela cells over-expressing hSCD5; format: biochemical; set-up: Cloning of the full-length human and mouse SCD cDNAs: The full coding region of human SCDs; expressed in transfected cells
T4 sequence (Q86SK9 1-330): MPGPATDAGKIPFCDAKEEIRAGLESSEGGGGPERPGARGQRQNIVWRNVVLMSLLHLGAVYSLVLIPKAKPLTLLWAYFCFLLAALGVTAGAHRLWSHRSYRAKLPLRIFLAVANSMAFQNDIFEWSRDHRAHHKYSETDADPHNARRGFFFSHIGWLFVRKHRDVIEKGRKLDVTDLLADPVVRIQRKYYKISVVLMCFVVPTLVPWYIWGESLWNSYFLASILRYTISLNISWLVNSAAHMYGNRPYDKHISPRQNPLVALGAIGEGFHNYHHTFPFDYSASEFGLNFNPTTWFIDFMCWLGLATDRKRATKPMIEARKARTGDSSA
Experimental: as §1, §2

Question: What does the source list for CCCCCCCCCCCCCCCCCC(=O)SCCNC(=O)CCNC(=O)[C@H](O)C(C)(C)COP(=O)(O)OP(=O)(O)OC[C@H]1O[C@@H](n2cnc3c(N)ncnc32)[C@H](O)[C@@H]1OP(=O)(O)O [18:0-CoA, stearoyl-CoA]?
Answer: Δ9-desaturase activity towards 18:0-CoA relative to 16:0-CoA (mSCD1): 2.2 fold; Δ9-desaturase activity towards 18:0-CoA relative to 16:0-CoA (mSCD2): 1.6 fold; Δ9-desaturase activity towards 18:0-CoA relative to 16:0-CoA (mSCD4): 2.0 fold; Δ9-desaturase activity towards 18:0-CoA relative to 16:0-CoA (hSCD1): 2.2 fold; utilization of 18:0-CoA relative to 16:0-CoA (hSCD5): 6 fold
